Assay type in all cases: cell-based
Experiment [1] concerns the target T1, human PPARδ (hPPARδ) (Homo sapiens, UniProt Q03181).
T1 construct: δ: aa 139-C-end; α: aa 167-C-end; expressed in transfected cells; host or cells: CHO cells (transient transfection, FuGene)
T1 sequence (Q03181 139-441 limits assumed): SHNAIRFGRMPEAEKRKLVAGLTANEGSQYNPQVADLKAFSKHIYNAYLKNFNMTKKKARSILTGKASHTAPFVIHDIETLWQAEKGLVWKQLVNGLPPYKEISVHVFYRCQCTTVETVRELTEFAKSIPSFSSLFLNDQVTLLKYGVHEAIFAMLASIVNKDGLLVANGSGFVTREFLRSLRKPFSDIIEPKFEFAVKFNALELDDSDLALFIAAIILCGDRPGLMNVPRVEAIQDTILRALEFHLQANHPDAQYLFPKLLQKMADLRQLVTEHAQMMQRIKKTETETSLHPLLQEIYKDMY
The experiment in a line: Test for transcriptional activity of PPARδ (GAL4 chimeric transcription factor reporter assay in CHO cells). The settings on record: CHO cells transfected with GAL4-hPPARδ LBD and pG5luc reporter; 24 hours; luciferase activity; concentration showing 1/2 of maximum luciferase activity. The source says:
(§1) A chimeric transcription factor assay, which is commonly used to detect nuclear receptor activity, was employed to measure PPAR transcriptional activity. Specifically, two plasmids, one that expresses the fusion protein of DNA binding domain of yeast transcription factor GAL4 and a ligand binding domain of a receptor, and a reporter plasmid were transiently transfected to CHO cells. The activity of the promoter containing a recognition sequence of GAL4 coded on the reporter plasmid was used as a parameter to estimate the activity of the receptor.
(§2) Plasmid: The ligand binding domain of human PPARδ (hPPARδ) or α(hPPARα) (δ: aa 139-C-end; α: aa 167-C-end) is obtained by PCR amplification using Human Universal Quick-Clone cDNA (CLONTECH). […] Then, each obtained cDNA fragment was subcloned into pBIND vector (Promega) to construct a plasmid expressing the fusion protein with DNA binding domain of yeast transcription factor GAL4. pG5luc vector (Promega) was used as a reporter plasmid.
(§3) Cell culturing and transfection: CHO cells were cultured in 10% FBS-aMEM. With a 96-well plate (Costar), CHO cells, that were dispersed with trypsin treatment, 20000 cells per well and the two plasmids obtained by the above procedure, 25 ng per well, were transfected with FuGene Reagent (Roche) by following the instruction of the manufacture.
(§4) Measurement of the transcriptional activity: CHO cells 100 μl per well, which were transfected as above, were dispensed into the wells in which a test compound dissolved in DMSO 0.5 μl was spotted in advance. After the cells and a test compound were cultured together for 24 hours in a CO2 incubator, the luciferase activity was measured by adding luciferase substrates, PicaGene LT2.0 (Toyo ink) 100 μl per well. LUMINOUS CT-9000D (DIA-IATRON) is used to measure the activity.
Background: A reporter such as luciferase makes a cellular process visible.

Experiment [2] deals with T2, human PPARα (hPPARα) (Homo sapiens, UniProt Q07869).
T2 construct: δ: aa 139-C-end; α: aa 167-C-end; expressed in transfected cells; host or cells: CHO cells (transient transfection, FuGene)
T2 sequence (Q07869 167-468 limits assumed): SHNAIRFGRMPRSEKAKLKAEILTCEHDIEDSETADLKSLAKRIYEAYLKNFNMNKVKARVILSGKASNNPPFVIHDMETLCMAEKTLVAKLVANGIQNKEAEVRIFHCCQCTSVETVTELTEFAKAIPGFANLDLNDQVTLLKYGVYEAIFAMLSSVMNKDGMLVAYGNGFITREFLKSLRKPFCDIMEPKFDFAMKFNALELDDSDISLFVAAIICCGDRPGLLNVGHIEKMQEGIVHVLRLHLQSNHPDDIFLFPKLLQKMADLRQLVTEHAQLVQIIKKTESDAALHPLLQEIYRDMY
As to the kind of experiment: Test for transcriptional activity of PPARα (GAL4 chimeric transcription factor reporter assay in CHO cells). The note with it: CHO cells transfected with GAL4-hPPARα LBD and pG5luc reporter; 24 hours; luciferase activity.
From the text: as §1, §2, §3, §4

For experiment [3], the target named is T3, hPPARγ (Homo sapiens, UniProt P37231).
T3 construct: expressed in transfected cells
T3 sequence (P37231 238-503 limits assumed): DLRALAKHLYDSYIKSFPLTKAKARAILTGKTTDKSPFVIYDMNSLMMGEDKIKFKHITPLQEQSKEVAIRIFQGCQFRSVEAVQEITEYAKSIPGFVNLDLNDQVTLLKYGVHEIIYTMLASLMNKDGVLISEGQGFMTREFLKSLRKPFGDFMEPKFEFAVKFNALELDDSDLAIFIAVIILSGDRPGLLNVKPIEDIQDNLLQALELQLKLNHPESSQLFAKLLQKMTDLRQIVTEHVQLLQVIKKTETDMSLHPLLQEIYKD
The experiment in a line: Transcriptional activity of PPARγ (Table 9; chimeric transcription factor assay).
From the text: as §1, with “receptor. Cell culturing and transfection: CHO cells were cultured in 10% FBS-aMEM. With a 96-well plate (Costar), CHO cells, that were dispersed with trypsin treatment, 20000 cells per well and the two plasmids obtained by the above procedure, 25 ng per well, were transfected with FuGene Reagent (Roche) by following the instruction of the manufacture. […] LUMINOUS […]) is used to measure the activity.” for “receptor.”

Take `Cc1cc(CC(=O)O)cc(CN2CCN(c3nc4ccc(C(F)(F)F)cc4s3)[C@@H](CC(C)C)C2)c1` [Example 474]: the EC50 (as a rule, the concentration that produces a half-maximal response) in experiment [1] was 0.0045 µM; in experiment [2], 0.35 µM; in experiment [3], 0.2 µM.
For `O=C(O)Cc1ccc(CN2CCCN(c3nc4ccc(Cl)cc4s3)CC2)s1` [Example 503], the values for the EC50 in experiment [1], in experiment [2] and in experiment [3] were 0.91 µM, 1.5 µM and greater than 10 µM, respectively.
On to `COc1ccc(CC(=O)O)cc1OCC1CCN(c2nc3ccc(Cl)cc3s2)CC1` [Example 519], for which the 50% effective concentration (EC50) turned out to be 0.02 µM in experiment [1], 0.54 µM in experiment [2] and 0.8 µM in experiment [3].
The like results for `CNc1cccc(-c2cnc(N3CCN(CCOc4cc(CC(=O)O)ccc4Cl)[C@@H](C)C3)s2)c1` [Example 562] were, in that order, 0.029 µM, greater than 10 µM and 1.9 µM.
As to `Cc1cc(CN2C[C@@H](C)N(c3nc4ccc(C(F)(F)F)cc4s3)[C@@H](C)C2)cc(OCC(=O)O)c1` [Example 590], the results for the EC50 in experiment [1], in experiment [2] and in experiment [3] were 0.026 µM, greater than 10 µM and greater than 10 µM, respectively.
Take `CCCCN(Cc1cccc(CC(=O)O)c1)C1CCN(c2nc3ccc(Cl)cc3s2)C1` (stereo not drawn) [Example 612, [3-[[butyl[1-(6-chlorobenzothiazole-2-yl)pyrrolidine-3-yl]amino]methyl]phenyl]acetic acid]: the EC50 in experiment [1] turned out to be 0.049 µM; in experiment [2], 0.57 µM; in experiment [3] it was 2.2 µM.
Regarding `O=C(O)Cc1cccc(OCCN(C2CCCCC2)C2CCN(c3nc4ccc(Cl)cc4s3)C2)c1` (stereo not drawn) [Example 630], the values for the EC50 in experiment [1], in experiment [2] and in experiment [3] were 0.023 µM, 2.6 µM and 4.2 µM, respectively.
For `C[C@@H]1CN(C2(CCOc3cc(Cl)cc(CC(=O)O)c3)CCN(c3nc4ccc(Cl)cc4s3)CC2)C[C@H](C)O1` [Example 652], the EC50 in experiment [1] was 0.28 µM; in experiment [2] it was greater than 10 µM; in experiment [3], greater than 10 µM.
In the case of `C[C@H]1CN(c2nc3ccc(Cl)cc3s2)CCN1CCOc1cc(Cl)cc(CC(=O)O)c1` [Example 679], the EC50 in experiment [1] amounted to 0.013 µM; in experiment [2] it was 0.96 µM; in experiment [3], 0.58 µM.
Regarding `C[C@@H]1CN(c2nc3ccc(Cl)cc3s2)C[C@H](C)N1CCOc1ccc(Cl)c(CC(=O)O)c1` [Example 699], the EC50 in experiment [1] was determined as 0.041 µM; in experiment [2] it was 1 µM; in experiment [3], 0.76 µM.
Turning to `C[C@@H]1CN(c2ccc(C(F)(F)F)cn2)C[C@H](C)N1CCOc1cc(CC(=O)O)ccc1Cl` [Example 707], the EC50 in experiment [1] worked out at 0.019 µM; in experiment [2] it was 2.5 µM; in experiment [3], 3.3 µM.
Take `CCCC[C@@H]1CN(Cc2cc(C)cc(OCC(=O)O)c2)CCN1c1nc2ccc(OC(F)(F)F)cc2s1` [Example 854, [3-[(R)-3-butyl-4-(6-trifluoromethoxybenzothiazole-2-yl)-piperazine-1-ylmethyl]-5-methylphenoxy]acetic acid]: the concentration giving a half-maximal response (EC50) in experiment [1] is 0.0044 µM; in experiment [2], greater than 10 µM; in experiment [3] it was greater than 10 µM.

The values are drawn from patent publication US8097610B2, “Derivative having PPAR agonistic activity” (Shionogi & Co., Ltd., priority 2005, dated 2012).
